The structures appear in SMILES notation.

In one assay the test system is dallisgrass. Briefly: Post-emergence field plot test, % damage to natural dallisgrass infestation. Format: in vivo, dallisgrass (Paspalum dilatatum). The settings on record: with non-ionic surfactant, rates g/ha foram 28.78, TCM 15, halo 69.9; for Trial 1 (16 WAT) % damage: 16 weeks after treatment; for Trial 2 (42 DAA) % damage: 42 days after application; for Trial 3 (48 DAA) % damage: 48 days after application. The source says: Plots approximately 2-4.6 m^2 in size are contain a natural infestion of the weed dallisgrass. Using a CO2 propelled backpack sprayer, thiencarbazone-methyl (TCM), foramsulfuron (foram), and halosulfuron-methyl (halo) are applied on their own and in a combination, by post-emergence method, to the dallisgrass, at the application rates specified. The application rates for each compound and combination are equivalent to each other. All treatments included a non-ionic surfactant. After 42 days, 48 days, and 16 weeks after treatment, the degree of damage to the plants is rated in % damage in comparison to the development of the untreated control.
(§1) The FIGURES denote: • 0%=no effect (like untreated control) • 100%=total destruction.

The subject of another assay is Tall Fescue. Briefly: Glasshouse post-emergence test, % damage to Tall Fescue. The settings on record: NIS 0.25 % V/V. Format: in vivo, tall fescue (Schedonorus phoenix/Festuca arundinacea).
Excerpt: Glasshouse plots approximately 1.1 m^2 in size are planted with the weed Tall Fescue. Using a 1 nozzle motorized track sprayer, thiencarbazone-methyl (BYH18636), foramsulfuron (Revolver●), and halosulfuron-methyl (Sedgehammer●) are applied on their own and in combination with each other (a combination of thiencarbazone-methyl, foramsulfuron, and halosulfuron-methyl is SP 102000025052), by post-emergence method, to the weed Tall Fescue, at the application rates specified. The application rates for each compound and combination are equivalent to each other.
After 14 and 27 days after treatment, the degree of damage to the plants is rated in % damage in comparison to the development of the untreated control.
as §1

The mark [1] stands for this setting: higher rates: TCM 22.2, foram 44.37, halo 69 G A/HA (blend 135.6 G A/HA, 3.2 OZ/A).
[2] abbreviates: lower rates: TCM 14.58, foram 29.12, halo 45.3 G A/HA (blend 89 G A/HA, 2.1 OZ/A).

Consider `COc1cc(OC)nc(NC(=O)NS(=O)(=O)c2cc(NC=O)ccc2C(=O)N(C)C)n1` [foramsulfuron], for which, in the assay with dallisgrass, the “Trial 1 (16 WAT) % damage” value is reported as 31.5%, the “Trial 2 (42 DAA) % damage” value is 76.7% and the “Trial 3 (48 DAA) % damage” value was determined as 35%.
As to `COC(=O)c1c(Cl)nn(C)c1S(=O)(=O)NC(=O)Nc1nc(OC)cc(OC)n1` [halosulfuron-methyl], in the assay on dallisgrass, the “Trial 1 (16 WAT) % damage” value worked out at 0%, the “Trial 2 (42 DAA) % damage” value was found to be 0% and the “Trial 3 (48 DAA) % damage” value was −9%.
`COC(=O)c1csc(C)c1S(=O)(=O)NC(=O)n1nc(OC)n(C)c1=O` [thiencarbazone-methyl]: in the assay with Tall Fescue (setting [1]), the “0 DAA % damage” value was found to be 0%, the “14 DAA % damage” value worked out at 42.5% and the “27 DAA % damage” value was 75%. Also, in the assay on Tall Fescue (setting [2]), the “0 DAA % damage” value was 0%, the “14 DAA % damage” value is 26.3% and the “27 DAA % damage” value is 52.5%. In the assay with dallisgrass, the “Trial 1 (16 WAT) % damage” value was determined as 85.25%, the “Trial 2 (42 DAA) % damage” value is reported as 65% and the “Trial 3 (48 DAA) % damage” value came to 51%.

(Values after patent publication US10231456B2, “Methods and compositions for controlling weed infestation and improving grass quality” (BAYER CROPSCIENCE LP, priority 2012, dated 2019).)
